Laboratory results: the NIST ThermoML archive (doi:10.1016/j.jct.2012.01.001)
± gives the expanded uncertainty stated by the source.

Test: Molar enthalpy of transition or fusion
Details: Crystal; DSC

SMILES	Molar enthalpy of transition or fusion
Oc1cccc2ccccc12 [1-naphthol]	5.17 ± 0.155 kcal/mol
Oc1ccc2ccccc2c1 [2-hydroxynaphthalene]	5.04 ± 0.151 kcal/mol
COc1cc(C=O)ccc1O [vanillin]	5.34 ± 0.16 kcal/mol
